Assay results: paper PMC11070402, “New antiproliferative 3-substituted oxindoles inhibiting EGFR/VEGFR-2 and tubulin polymerization” (Molecular Diversity, 2023)
Several values for one entry are separate records, joined by “and”; a condition that tells them apart may be missing. Equal values may be shown once. Read-outs that look alike come from different tables or passages of the source.

Key:
[1] = tested on: HOP-92 (non-small cell lung cancer cell line); assay: NCI one-dose assay, HOP-92; type: cell-based; settings: Homo sapiens; HOP-92 (Non-Small Cell Lung Cancer), 10 uM single dose; read-out: Growth inhibition %
Protocol: (§1) All novel scaffolds 6a–j were carefully selected by the National Cancer Institute (NCI), Bethesda, USA, to elucidate their cytotoxic activity versus 60 human cancer cell lines at 10 µM as a single-dose concentration after a 48 h incubation period.
(§2) National Cancer Institution selected all the synthesized 6a–j (NCI), Bethesda, USA, for in vitro one-dose antitumor assay. The methodology protocol for the NCI anticancer screening was reported in detail elsewhere (http://www.dtp.nci.nih.gov). The anticancer assay was performed in full NCI 60 cell lines extracted from nine tumor cell lines, including leukemia, melanoma, lung, colon, CNS, ovarian, renal, prostate, and breast cancer cell lines.

SR = assay: NCI one-dose assay, SR; type: cell-based; settings: Homo sapiens; SR; 10 µM single dose, 48 h incubation; read-out: cell growth inhibition % (GI %)
Protocol: as §1, §2

[2] = tested on: 60 human cancer cell lines; assay: NCI one-dose assay against sixty NCI cancer cell lines; type: cell-based
Protocol: as §1, §2

MCF-7 = assay: NCI one-dose assay, MCF-7; type: cell-based, human; settings: MCF-7, 10 µM single dose, 48 h incubation
Protocol: as §1, §2

MOLT-4 = assay: NCI one-dose assay, MOLT-4; type: cell-based; settings: Homo sapiens; MOLT-4; 10 µM single dose, 48 h incubation; read-out: cell growth inhibition % (GI %)
Protocol: as §1, §2

[3] = tested on: SNB-75 cells (CNS cancer cell line); assay: NCI one-dose assay, SNB-75; type: cell-based; settings: Homo sapiens; SNB-75 (CNS Cancer), 10 uM single dose; read-out: Growth inhibition %
Protocol: as §1, §2

SK-MEL-5 = assay: NCI one-dose assay, SK-MEL-5; type: cell-based; settings: Homo sapiens; SK-MEL-5; 10 µM single dose, 48 h incubation; read-out: cell growth inhibition % (GI %)
Protocol: as §1, §2

LOX IMVI = assay: NCI one-dose assay, LOX IMVI; type: cell-based; settings: Homo sapiens; LOX IMVI; 10 µM single dose, 48 h incubation; read-out: cell growth inhibition % (GI %)
Protocol: as §1, §2

K-562 = assay: NCI one-dose assay, K-562; type: cell-based; settings: Homo sapiens, K562; K-562; 10 µM single dose, 48 h incubation; read-out: cell growth inhibition % (GI %)
Protocol: as §1, §2

NCI-H23 = assay: NCI one-dose assay, NCI-H23; type: cell-based; settings: Homo sapiens; NCI-H23; 10 µM single dose, 48 h incubation; read-out: cell growth inhibition % (GI %)
Protocol: as §1, §2

UO-31 = assay: NCI one-dose assay, UO-31; type: cell-based; settings: Homo sapiens; UO-31; 10 µM single dose, 48 h incubation; read-out: cell growth inhibition % (GI %)
Protocol: as §1, §2

[4] = tested on: MCF-7 (human breast cancer); assay: Cytotoxicity versus MCF-7 cell line (MTT assay); settings: MCF7, read-out: MCF-7 (IC50 ± SD, uM)
Protocol: IC50 values were recorded using the Boltzman sigmoidal concentration–response curve equation using the nonlinear regression fitting models by GraphPad, Prism version 5 (GraphPad Software Inc., La Jolla, CA). MTT assay for MCF-7 cell lines. Cell line cells were obtained from American Type Culture Collection. Cells were cultured using DMEM media (Invitrogen/Life Technologies) supplemented with 10% FBS (Hyclone), 10 ug/ml of insulin (Sigma), and 1% penicillin–streptomycin. All the other chemicals and reagents were purchased from Sigma or Invitrogen. Cells were seeded in plates (cells density 1.2–1.8 × 10,000 cells/well) in a volume of 100 μl full-growth medium + 100 μl of the tested scaffold per well in a 96-well plate for 24 h before the application of the MTT assay protocol as reported, supplementary information.

A549/ATCC = assay: NCI one-dose assay, A549/ATCC; type: cell-based; settings: Homo sapiens, 10 µM single dose, 48 h incubation, read-out: cell growth inhibition % (GI %)
Protocol: as §1, §2

T-47D = assay: NCI one-dose assay, T-47D; type: cell-based; settings: Homo sapiens, T47D; T-47D; 10 µM single dose, 48 h incubation; read-out: cell growth inhibition % (GI %)
Protocol: as §1, §2

O=C1Nc2cc(Cl)ccc2C1=Cc1ccc(OCC(=O)c2ccc(Br)cc2)cc1 [Compound 6g, 6-Chloro-3-{4-[2-(4-bromophenyl)-2-oxoethoxy]benzylidene}indolin-2-one]
inhibition at 10 µM [1]: 30.8%
inhibition at 10 µM (SR): 59.7%
inhibition at 10 µM ([2]; 786-0 (Renal Cancer), 10 uM single dose, read-out: Growth inhibition %): 15.6%
inhibition at 10 µM ([2]; ACHN (Renal Cancer), 10 uM single dose, read-out: Growth inhibition %): 31.2%
inhibition at 10 µM ([2]; BT-549 (Breast Cancer), 10 uM single dose, read-out: Growth inhibition %): 44.3%
inhibition at 10 µM ([2]; CAKI-1 (Renal Cancer), 10 uM single dose, read-out: Growth inhibition %): 47.6%
inhibition at 10 µM ([2]; CCRF-CEM (Leukemia), 10 uM single dose, read-out: Growth inhibition %): 34.3%
inhibition at 10 µM ([2]; COLO 205 (Colon Cancer), 10 uM single dose, read-out: Growth inhibition %): 44.7%
inhibition at 10 µM ([2]; DU-145 (Prostate Cancer), 10 uM single dose, read-out: Growth inhibition %): 12.4%
inhibition at 10 µM ([2]; EKVX (Non-Small Cell Lung Cancer), 10 uM single dose, read-out: Growth inhibition %): 43.8%
inhibition at 10 µM ([2]; HCC-2998 (Colon Cancer), 10 uM single dose, read-out: Growth inhibition %): 17.5%
inhibition at 10 µM ([2]; HCT-15 (Colon Cancer), 10 uM single dose, read-out: Growth inhibition %): 46.9%
inhibition at 10 µM ([2]; HCT-116 (Colon Cancer), 10 uM single dose, read-out: Growth inhibition %): 42.1%
inhibition at 10 µM ([2]; HL-60(TB) (Leukemia), 10 uM single dose, read-out: Growth inhibition %): 53.8%
inhibition at 10 µM ([2]; HS 578T (Breast Cancer), 10 uM single dose, read-out: Growth inhibition %): 22.4%
inhibition at 10 µM ([2]; HT-29, HT29 (Colon Cancer), 10 uM single dose, read-out: Growth inhibition %): 16.1%
inhibition at 10 µM ([2]; IGROV-1, IGROV1 (Ovarian Cancer), 10 uM single dose, read-out: Growth inhibition %): 34.6%
inhibition at 10 µM ([2]; KM12 (Colon Cancer), 10 uM single dose, read-out: Growth inhibition %): 28.7%
inhibition at 10 µM ([2]; M14 (Melanoma), 10 uM single dose, read-out: Growth inhibition %): 31.1%
inhibition at 10 µM ([2]; MALME-3M (Melanoma), 10 uM single dose, read-out: Growth inhibition %): 12.9%
inhibition at 10 µM ([2]; MDA-MB-231, read-out: Growth inhibition %): 23.4%
inhibition at 10 µM ([2]; MDA-MB-435 (Melanoma), 10 uM single dose, read-out: Growth inhibition %): 24.8%
inhibition at 10 µM ([2]; MDA-MB-468 (Breast Cancer), 10 uM single dose, read-out: Growth inhibition %): 42.3%
inhibition at 10 µM ([2]; NCI-H226 (Non-Small Cell Lung Cancer), 10 uM single dose, read-out: Growth inhibition %): 37.9%
inhibition at 10 µM ([2]; NCI-H322M (Non-Small Cell Lung Cancer), 10 uM single dose, read-out: Growth inhibition %): 18.1%
inhibition at 10 µM ([2]; NCI-H460 (Non-Small Cell Lung Cancer), 10 uM single dose, read-out: Growth inhibition %): 41%
inhibition at 10 µM ([2]; NCI-H522 (Non-Small Cell Lung Cancer), 10 uM single dose, read-out: Growth inhibition %): 49.4%
inhibition at 10 µM ([2]; OVCAR-3 (Ovarian Cancer), 10 uM single dose, read-out: Growth inhibition %): 15.7%
inhibition at 10 µM ([2]; OVCAR-4 (Ovarian Cancer), 10 uM single dose, read-out: Growth inhibition %): 44.5%
inhibition at 10 µM ([2]; OVCAR-5 (Ovarian Cancer), 10 uM single dose, read-out: Growth inhibition %): 13.9%
inhibition at 10 µM ([2]; OVCAR-8 (Ovarian Cancer), 10 uM single dose, read-out: Growth inhibition %): 30.7%
inhibition at 10 µM ([2]; PC-3 (Prostate Cancer), 10 uM single dose, read-out: Growth inhibition %): 51.4%
inhibition at 10 µM ([2]; RPMI-8226 (Leukemia), 10 uM single dose, read-out: Growth inhibition %): 43.6%
inhibition at 10 µM ([2]; RXF 393 (Renal Cancer), 10 uM single dose, read-out: Growth inhibition %): 44.8%
inhibition at 10 µM ([2]; SF-268 (CNS Cancer), 10 uM single dose, read-out: Growth inhibition %): 22%
inhibition at 10 µM ([2]; SF-295 (CNS Cancer), 10 uM single dose, read-out: Growth inhibition %): 45.1%
inhibition at 10 µM ([2]; SF-539 (CNS Cancer), 10 uM single dose, read-out: Growth inhibition %): 30.6%
inhibition at 10 µM ([2]; SK-MEL-2 (Melanoma), 10 uM single dose, read-out: Growth inhibition %): 29.8%
inhibition at 10 µM ([2]; SK-MEL-28 (Melanoma), 10 uM single dose, read-out: Growth inhibition %): 19.4%
inhibition at 10 µM ([2]; SN12C (Renal Cancer), 10 uM single dose, read-out: Growth inhibition %): 45.2%
inhibition at 10 µM ([2]; SNB-19 (CNS Cancer), 10 uM single dose, read-out: Growth inhibition %): 18.5%
inhibition at 10 µM ([2]; SW-620 (Colon Cancer), 10 uM single dose, read-out: Growth inhibition %): 14.1%
inhibition at 10 µM ([2]; U-251, U251 (CNS Cancer), 10 uM single dose, read-out: Growth inhibition %): 25.8%
inhibition at 10 µM ([2]; UACC-62 (Melanoma), 10 uM single dose, read-out: Growth inhibition %): 42%
inhibition at 10 µM ([2]; UACC-257 (Melanoma), 10 uM single dose, read-out: Growth inhibition %): 27.1%
inhibition at 10 µM (MCF-7; Homo sapiens, MCF7, 48 h, read-out: cell growth inhibition % (GI %)): 70.3%
cell growth inhibition % (GI %) (MCF-7): 70.03% and 71.12%
inhibition at 10 µM (MOLT-4): 61.6%
inhibition at 10 µM [3]: 31.1%
inhibition at 10 µM (SK-MEL-5): 61.2%
inhibition at 10 µM (LOX IMVI): 45.8%
inhibition at 10 µM (K-562): 58.3%
inhibition at 10 µM (NCI-H23): 46.8%
inhibition at 10 µM (UO-31): 59.4%
IC50 [4]: 25.4 ± 1.23 µM
inhibition at 10 µM (A549/ATCC): 49.9%
inhibition at 10 µM (T-47D): 55.2%
